These results are taken from patent US8642541B2 (priority 2008, dated 2014).

“Also recorded” adds a separate entry of the source.

Test [1] can be described thus: Oral glucose tolerance test (OGTT) in db/db mice. The class given is in vivo. The conditions noted are these: 45 nmol/kg i.p. As to the method: The animals were kept fasted during the experiment to prevent confounding food intake. Fifteen minutes later an oral dose of glucose (1 g/kg in 5 ml/kg) was given and BG levels were measured at t=30 min, t=60 min, t=120 min and t=240 min.
Difference from baseline (t=0) was calculated for each time point and AUC0-240 min values were determined. Statistical analyses of AUC values by one-way ANOVA and Dunnetts post-hoc analyses were performed with GraphPad Prism version 4. Differences were considered significant at the p<0.05 level.

The nature of test [2]: 28 day treatment of diet induced obese (DIO) mice: body weight gain. The class given is in vivo. As to the method: Four weeks before drug treatments, C57Bl/6 male mice (7 weeks) (10-12 animals in each group) were put on high fat diet (HFD) and their day-night cycle reversed with lights On/Off at 2000/0800 hour. Experimental animals were conditioned to treatment by daily injections (s.c.) of 0.1 ml vehicle and acclimatized to handling by weighing them twice a week one week before start of drug administrations. The day before start of experiment, mice were stratified into groups with similar body weight (BW) and the next day groups of stratified mice were treated (b.i.d.; s.c.) with ZP2653 (SEQ ID NO: 4) (500 nmol/kg)), or vehicle (PBS, pH 7.4, 2.5 μl/g BW). A non-obese control group maintained on regular chow was treated with vehicle in the same treatment regime as the DIO groups. Body weights were recorded daily and used to administer the body weight-corrected doses of peptide throughout the study. Animals were fasted overnight before sacrifice. An eye blood sample (0.6 ml EDTA) was obtained the following morning immediately before cervical dislocation. Blood plasma samples were stored at −80° C. until analyzed for cholesterol, HDL and LDL using commercially available kits. Body weight gains throughout the treatment period were calculated for each animal by subtracting its weight at the initiation of treatment. […]

For test [3], the system named is primary rat adipocyte cultures. The class given is cell-based. As to the method: Adipocytes were isolated from epididymal fat dissected from normal young adult Sprague-Dawley rats. The fat lumps were minced, incubated and shaken (220 rpm) with collagenase (1 mg/ml) in Krebs-Ringer buffer containing 4% BSA (KRB-BSA) for 60 minutes at 37° C. The suspension was filtered through a nylon filter (160 μm pore size) and the filtrate centrifuged at 200×g for 3 min. The subjacent medium beneath the upper floating layer of adipocytes was removed with a Pasteur-pipette. The adipocytes were washed 3 times in KRB-BSA buffer by re-suspension and centrifugation. The adipocytes were re-suspended in KRB-BSA, mixed, incubated in and shaken with test compounds in 96-deep well plates (50,000 cells/well) in a total volume of 1 ml at 37° C. for 60 min. The plates were placed on ice for at least 10 min after incubation followed by centrifugation at 200×g for 3 min. 300 μl of the buffer beneath the adipocyte layer were collected in a 96-deep well plate. This process was repeated two more times and the 3 extracts collected from each culture pooled together. The glycerol formed by the lipolysis in the adipocyte cultures was measured by adding free glycerol reagent (200 μl) to aliquots (25 μl) of adipocyte extract, incubate at room temperature for 15 min, and measure the absorbance at 540 nm.

A short description of test [4]: 28 day treatment of DIO mice: plasma cholesterol, HDL and LDL. The class given is in vivo. The note with it: 4 weeks b.i.d., compared to vehicle. As to the method: Four weeks before drug treatments, C57Bl/6 male mice (7 weeks) (10-12 animals in each group) were put on high fat diet (HFD) and their day-night cycle reversed with lights On/Off at 2000/0800 hour. Experimental animals were conditioned to treatment by daily injections (s.c.) of 0.1 ml vehicle and acclimatized to handling by weighing them twice a week one week before start of drug administrations. […] A non-obese control group maintained on regular chow was treated with vehicle in the same treatment regime as the DIO groups. Body weights were recorded daily and used to administer the body weight-corrected doses of peptide throughout the study. Animals were fasted overnight before sacrifice. An eye blood sample (0.6 ml EDTA) was obtained the following morning immediately before cervical dislocation. Blood plasma samples were stored at −80° C. until analyzed for cholesterol, HDL and LDL using commercially available kits. Body weight gains throughout the treatment period were calculated for each animal by subtracting its weight at the initiation of treatment.
Statistical analyses of data on body weight gain and cholesterols among treatments by 2-way ANOVA with repeated measures and Bonferoni post-hoc analyses were performed with GraphPad Prism version 4. Differences were considered significant at the p<0.05 level.

For the next test, the target named is T1, human Glucagon-R (Homo sapiens, UniProt P47871).
T1 construct: expressed in transfected cells
T1 sequence (P47871 26-477): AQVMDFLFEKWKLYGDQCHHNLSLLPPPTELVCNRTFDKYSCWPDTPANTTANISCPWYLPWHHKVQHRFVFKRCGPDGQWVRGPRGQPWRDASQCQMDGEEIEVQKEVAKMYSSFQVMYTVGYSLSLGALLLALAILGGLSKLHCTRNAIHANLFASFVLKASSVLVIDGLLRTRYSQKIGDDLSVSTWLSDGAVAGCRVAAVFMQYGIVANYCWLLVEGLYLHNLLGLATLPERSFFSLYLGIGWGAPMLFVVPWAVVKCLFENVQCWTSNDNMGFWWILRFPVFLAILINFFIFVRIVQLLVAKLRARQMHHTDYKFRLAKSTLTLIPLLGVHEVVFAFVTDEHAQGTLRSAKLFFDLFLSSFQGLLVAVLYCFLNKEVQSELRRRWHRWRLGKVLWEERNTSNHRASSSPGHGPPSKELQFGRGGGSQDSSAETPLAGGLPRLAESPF
In words: Glucagon receptor efficacy assay (cAMP, HEK293 cells). The note with it: read-out: GLUR EC50. The class given is cell-based. As to the method: The 5′-end primers additionally encoded a near Kozak consensus sequence to ensure efficient translation.
48 hr after transfection cells were seeded for limited dilution cloning and selected with 1 mg/ml G418 in the culture medium.
On the day of analysis, growth medium was removed and the cells washed once with 200 μl Tyrode buffer. Cells were incubated in 100 μl Tyrode buffer containing increasing concentrations of test peptides, 100 μM IBMX, and 6 mM glucose for 15 min at 37° C. The reaction was stopped by addition of 25 μl 0.5 M HCl and incubated on ice for 60 min. The cAMP content was estimated using the FlashPlate® cAMP kit from Perkin-Elmer.

Usually EC50 stands for the concentration needed to bring the measured effect to its halfway point. On to “H-HSQGTFTSDYSLYLDSRRAKDFIEWLESA-NH2 [ZP2653]”, for which, in test [1] (AUC0-240 min), the “improvement of glucose tolerance (decrease in Area Under the curve (AUC))” value is on record as 39.5%. For the same substance, the “effect on oral glucose tolerance” value in test [1] (OGTT) is listed as “significantly improved glucose tolerance”. Besides, the “effect on body weight gain” value in test [2] (DIO mice on HFD, 500 nmol/kg b.i.d. s.c., 28 days, versus vehicle) is “decreased body weight gain to a level similar to that observed with chow feeding; also recorded: decreased body weight gain significantly”. Also, the “effect on fat deposition” value in test [2] (DIO mice, 4 weeks treatment) is “significantly decreased fat deposition”. Also, the response in test [3] was half-maximal at 3.6 nM (EC50). Also, in test [3] (primary adipocyte cultures), the “lipolysis potency relative to OXM” value is recorded as 50 times and the “lipolysis potency relative to glucagon” value is listed as “equipotent to glucagon”. Moreover, in test [4], the “effect on HDL/LDL ratios” value is reported as “significant” and the “effect on concentrations of LDL cholesterol” value is “significant effect”.

In the case of “H-HSQGTFTSDYSLYLDSRRAKDFIEWLERA-NH2 [Compound L006-0050]”, on human Glucagon-R, the concentration giving a half-maximal response (EC50) stood at 0.1 nM.
